Drawing on PMC7377239, “Cardiovascular Effects of Polychlorinated Biphenyls and Their Major Metabolites” (Environmental Health Perspectives, 2020), this text covers minimal effective concentration for two molecules.

Counter-ions that a name gives are not always drawn. Like-named read-outs stand apart in the source and are kept apart here.

One assay has as its system HUVECs. In words: High-content imaging cytotoxicity in HUVECs, 24 h. Conditions: Homo sapiens, HUVEC, 24 h, HUVEC, 24 hr. Type of assay: cell-based, human. Put shortly: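 Point-of-departure values come from four-parameter logistic fits of vehicle-normalized (0.5% DMSO) imaging readouts, cutoff one SD of vehicle means, 100μM where no concentration–response. Cells: HUVEC monolayers, passages 1–5, treated 24 h at 37°C, 5% CO2, then Hoechst 33342/MitoTracker Orange/calcein AM stained, imaged at 10×.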

The test system of assay [1] is iCell endothelial cells (human iPSC-derived ECs). In words: High-content imaging cytotoxicity in iCell endothelial cells, 24 h. Type of assay: cell-based. The note with it: Homo sapiens, Endothelial cell, endothelial cells (endo), 24 hr. The method, boiled down: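 Readouts were vehicle-normalised and fitted to a four-parameter logistic model. POD was set at one SD beyond 0.5% DMSO control means, and 100 µM was assigned when no response was seen. Cells were monolayers of iCell endothelial cells imaged after 24 h compound exposure using nuclear, mitochondrial and calcein dyes.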

Setting [2] is: cyto, read-out: POD huvec.cyto.24hr.
Setting [3] is: mito, read-out: POD huvec.mito.24hr.
Setting [4] is: mitoint, read-out: POD huvec.mitoint.24hr.
[5] abbreviates: nma, read-out: POD huvec.nma.24hr.
The mark [6] stands for this setting: tc, read-out: POD huvec.tc.24hr.
The mark [7] stands for this setting: cyto, read-out: POD endo.cyto.24hr.
The mark [8] stands for this setting: mito, read-out: POD endo.mito.24hr.
Where [9] appears, read: mitoint, read-out: POD endo.mitoint.24hr.
The mark [10] stands for this setting: nma, read-out: POD endo.nma.24hr.

With `Oc1cccc(-c2ccc(Cl)cc2)c1` [3'-OH-PCB 3], the minimal effective concentration with HUVECs (setting [2]) came to 1.1 µM; in the assay with HUVECs (setting [3]), 0.97 µM; with HUVECs (setting [4]), 41.4 µM; in the assay on HUVECs (setting [5]), 0.04 µM; in the assay on HUVECs (setting [6]) it was 1.1 µM; in assay [1] (setting [7]), 45.8 µM. For the same molecule, the minimal effective concentration in assay [1] (setting [8]) was 45.8 µM; in assay [1] (setting [9]), 100 µM; in assay [1] (setting [10]), 9.75 µM; in assay [1] (tc, read-out: POD endo.tc.24hr), 53.2 µM.

On to `O=S(=O)(O)Oc1cccc(-c2ccc(Cl)cc2)c1` [3'-PCB 3 sulfate], for which the minimal effective concentration (in the assay on HUVECs (setting [2]); in the assay on HUVECs (setting [3]); with HUVECs (setting [4]); in the assay with HUVECs (setting [5]); in the assay with HUVECs (setting [6]); in assay [1] (setting [7])) was 100 µM each time. Further, the minimal effective concentration in assay [1] (setting [8]) came out at 100 µM; in assay [1] (setting [9]), 100 µM; in assay [1] (setting [10]), 100 µM; in assay [1] (tc, read-out: POD endo.tc.24hr), 100 µM.
